The source of these data is article PMC11388019, “Autoregulatory mechanism of enzyme activity by the nuclear localization signal of lysine-specific demethylase 1 [drawing 1]” (The Journal of Biological Chemistry, 2024).

The target of assay [1] is T1, ΔN LSD1-CoREST (Homo sapiens, UniProt O60341+Q9UKL0).
T1 construct: The N terminally truncated (aa 171–852) LSD1 plasmid (pGEX-6P-1-ΔN LSD1); GST (cleaved yes); made in house; host or cells: E. coli Rosetta (DE3) pLysS, co-expression
The experiment in a line: Horseradish peroxidase (HRP) coupled demethylase assay on 21 a.a. H3K4me2 peptide substrate. Particulars: for acts as substrate of LSD1: 10 μM peptide alone; for acts as substrate of LSD1 / effect of peptide on LSD1 demethylation activity (absorbance vs time) / Ki: HRP-coupled assay; for effect of peptide on LSD1 demethylation activity (absorbance vs time): 10 μM peptide, 10 μM H3K4me2 21 aa substrate; for effect of peptide on LSD1 demethylation activity (absorbance vs time) / Ki: 0.3 μM ΔN LSD1-CoREST; for fold weaker inhibition (Ki) compared to the NLS peptide: 21 aa H3K4me2 model peptide substrate; for Ki: H3K4me2 (1-21) peptide 10-60 μM, 50 mM Hepes pH 7.5, 25 °C, competitive fit, N = 2, read-out: inhibition constant Ki (Ki app) on H3K4me2 peptide substrate. Format: biochemical. As for the experimental part:
An inhibition study was performed using horseradish peroxidase (HRP) coupled demethylase assay in the presence of NLS, P1, or P2 peptides, using the 21 a.a H3K4me ([2]) peptide as substrate ([9], [38]). […] When a full inhibition study was performed using different concentrations of the 21 a.a. […] Control experiments indicate that the NLS peptide directly influences the LSD1 catalyzed reaction and that inhibition is not an artifact of the HRP-coupled assay system (Fig. S8).
LSD1-CoREST activity assays were performed using well-established peroxidase-coupled assay that monitors H2O2 production under aerobic conditions ([48]). Initial velocity measurements were measured using a Shimadzu UV2600 UV-Visible spectrophotometer equipped with thermostated cell holder (T = 25 °C). ΔN LSD1-CoREST was buffer exchanged into 25 mM Hepes pH 7.4, 100 mM NaCl, and 5 mM TCEP buffer. Each 150 μl reaction mixture contained 50 mM Hepes (Na) pH 7.5, 0.3 μM ΔN LSD1-CoREST, 1 μg of HRP, 0.1 mM 4-aminoantipyrine, and contained various substrate concentrations (10, 20, 30, 40, and 60 μM). Enzyme reactions were initiated by the addition of substrate; H3K4me2 peptide aa 1 to 21 or the NLS-K114me2 peptide (107–120, dimethylated at K114), into the reaction mixture in quartz cuvette. Activity region monitored was 0 to 30 s, and total time of each measurement was 180 s. Baseline correction was done at 505 to 525 nm. Changes in absorbance were measured at 515 nm wavelength and initial velocity calculations were done using an extinction coefficient of 26,000 M^−1 cm^−1 by Graphpad Prism (http://www.graphpad.com). Initial velocity values obtained from absorbance versus time graph, and they were fitted to Michaelis-Menten equation nonlinear regression and obtained Vmax (maximum velocity), apparent kmax (turnover number) and Km (Michaelis constant).
Peptide inhibition assays in presence of model substrate were conducted as follows using a peroxidase-coupled assay that monitors H2O2 production under aerobic conditions. A 150 μl reaction mixture contained 50 mM Hepes (Na) pH 7.5, 0.3 μM ΔN LSD1-CoREST, 1 μg of HRP, 0.1 mM 4-aminoantipyrine, 1.0 mM 3,5-dichloro-2- hydroxybenzenesulfonic acid, NLSK114me2 10 μM (as inhibitor and substrate)/NLSp∗ 10 μM/NLS 10 μM/P1 10 μM/P2 10 μM and H3K4me2 21aa substrate 10 μM. Enzyme reactions were initiated by the addition of substrate; H3K4me2 peptide aa (1–21) into the reaction mixture in quartz cuvette. Initial velocity values obtained from absorbance versus time graph were fitted to inhibition models using nonlinear regression fit. Complete kinetics profiles were performed for the NLS and NLSp∗ peptides, where different concentrations of NLS (0, 2.5 μM, 5 μM, 10 μM) or NLSp∗ (0, 10 μM, 40 μM, 100 μM) were incubated with freshly prepared ΔN LSD1-CoREST.

Assay [2] has as its target LSD1. Particulars: H3K4me2 model peptide substrate, Ki/M, read-out: Ki (Ki app), Table S4, cited from earlier work.
Excerpt: Comparative (Ki app) data of peptide sequences that inhibit LSD1-catalytzed demethylation on a H3K4me2 model (peptide) substrate.
In assay [3] the target is T1, ΔN LSD1-CoREST. The assay can be described thus: Quantitative Western blot assay of demethylation on H3K4me2 nucleosome substrates in presence of NLS peptide. Format: biochemical. The conditions noted are these: 2 μM ΔN LSD1-CoREST, 100 nM H3K4me2 nucleosome (147 bp DNA), 50 mM Hepes pH 8.0, 50 mM KCl, 25 °C, from relative kobs, Hill coefficient set to 1, N = 2; read-out: IC50 for inhibition of demethylation on H3K4me2 nucleosome substrates. From the text:
Based on these coupled assay results and data (Fig. 2, C and D), we developed an in vitro quantitative WB assay to monitor LSD1-catalyzed demethylation on H3K4me2 nucleosome substrates. This approach provides enhanced reliability of the antibody reagents as well as a robust measure of the impact of the NLS peptide on LSD1’s ability to demethylate nucleosomes ([39]). A series of time-course assays with increasing NLS peptide measured the fraction of demethylated H3K4me2 nucleosomes containing a 147 bp DNA, and this was visualized using an anti-H3K4me2-specific antibody or a control H3 antibody (Fig. 4, B and C). Here, dividing the H3K4me2 antibody signal by the H3 antibody signal allowed for quantitation of each data point, where the disappearance of H3K4me2 signal directly corresponds to the NLS's ability to impact LSD1’s demethylation activity. The H3K4me2/H3 ratios were normalized at time zero and plotted as a function of time (minutes), and the determined rate constant (kobs) values were evaluated at increasing NLS concentrations (Fig. 4, B and C).
Quantitative WB activity assays of the ΔN LSD1- CoREST and FL-LSD1- CoREST at 2, 5, 10, and 20 μM concentrations were performed in reaction conditions containing 50 mM Hepes (pH 8.0), 50 mM KCl, 5% glycerol, and 1 mM TCEP and were initiated with 100 nM nucleosome substrate. […]

“Also recorded” adds a separate entry of the source. Read-outs that look alike come from different tables or passages of the source.

On to “GRRTSRRKme2RAKVEY [NLS-K114me2, dimethylated K114 NLS peptide, aa 107–120]”, for which the “acts as substrate of LSD1” value in assay [1] was “does not serve as a substrate”; in assay [1] (listed as NLS K114me2), “does NOT act as a substrate of LSD1”. The “effect of peptide on LSD1 demethylation activity (absorbance vs time)” value (“effect of peptide … (absorbance vs time)” for short) in assay [1] was “inhibition of demethylation activity was retained”; in assay [1] (listed as NLS K114 me2), “both inhibit LSD1 activity”. For “ARTKpropQTARKSTGGKAPRKQLA [H3(1-21) K4propargylamine]”, the Ki in assay [2] (supplement numbering ref 9) is 16.6 µM. For the compound “ARTKmeQTARKSpTGGKAPRKQLA [H3(1-21) K4me S10p]”, the Ki in assay [2] (supplement numbering ref 5, 6) is 31 µM. Regarding “QTARKSTGGKAPRKQLA [H3(5-21), histone H3 peptide residues 5-21]”, the Ki in assay [2] (supplement numbering ref 5, 6) is 87 µM. On to PRGFLVKRSKKSTPVSYRVR [INSM1 (1−20)], for which the Ki in assay [2] (supplement numbering ref 4) is 0.24 µM. Turning to Ac-GRRDDRRKRAKVEY-NH2 [NLS-p∗], in assay [1], the “effect of peptide … (absorbance vs time)” value is “do not obstruct LSD1-catalyzed demethylation”, the “fold weaker inhibition (Ki) compared to the NLS peptide” value is reported as “approximately 12 fold” and the Ki was found to be 38.7 ± 1.8 µM. In assay [1] (listed as NLSp*), the “effect of peptide … (absorbance vs time)” value is recorded as “does not inhibit LSD1-catalyzed” and the “fold weaker inhibition (Ki) compared to the NLS peptide” value stood at 10 fold. On to `CC(=O)NCC(=O)N[C@@H](CCCNC(=N)N)C(=O)N[C@@H](CCCNC(=N)N)C(=O)N[C@H](C(=O)N[C@@H](CO)C(=O)N[C@@H](CCCNC(=N)N)C(=O)N[C@@H](CCCNC(=N)N)C(=O)N[C@@H](CCCCN)C(=O)N[C@@H](CCCNC(=N)N)C(=O)N[C@@H](C)C(=O)N[C@@H](CCCCN)C(=O)N[C@H](C(=O)N[C@@H](CCC(=O)O)C(=O)N[C@@H](Cc1ccc(O)cc1)C(N)=O)C(C)C)[C@@H](C)O` [NLS], for which the “effect of peptide … (absorbance vs time)” value in assay [1] (listed as NLS peptide) is “inhibits LSD1; also recorded: both inhibit LSD1 activity; also recorded: acted as an inhibitor”. Besides, the Ki in assay [1] amounted to 3.3 ± 0.6 µM. Also, the mode of inhibition result in assay [1] (Lineweaver Burk plot, 0-10 μM NLS peptide, H3K4me2 peptide substrate) is reported as “competitive inhibition; also recorded: competitive inhibitor”. Besides, the IC50 in assay [3] came out at 30.4 ± 3.2 µM.

PRSFLVRKPSDPNRKPNYSE [SNAIL (1-20)]: the Ki in assay [2] (supplement numbering ref 4) is 0.21 µM. For the compound “YSEEERNAKAEKEKK [P2, neutral-charged α-helical containing LSD1 peptide region a.a; 137–151]”, the “effect of peptide … (absorbance vs time)” value in assay [1] is “do not inhibit; also recorded: did not influence the demethylation reaction”. As for “ARTKQTARKSTG [H3 (1−12), histone H3 peptide residues 1-12]”, in assay [2] (supplement numbering ref 5, 6), the Ki is 199 µM. On to “ARTKmeQTARmeKSTGGKAPRKQLA [H3(1-21)K4meR8me]”, for which, in assay [2] (supplement numbering ref 7), the Ki was 100 µM. Consider “REMDESLANLSEDEYY [P1, negatively charged LSD1 peptide region a.a; 121–136]”, for which the “effect of peptide … (absorbance vs time)” value in assay [1] is “do not inhibit; also recorded: did not influence the demethylation reaction”.
